The results in this text go back to ChEMBL document CHEMBL5360587, “Differentiation-Promoting Effects of Okeaniamides A and B from an Okeania sp. Marine Cyanobacterium on Preadipocytes” (J Nat Prod, 2023).

Data set [1] concerns 3T3-L1. As to the kind of experiment: Induction of adipogenesis in mouse 3T3-L1 cells assessed as increase in lipid droplets formation incubated with media replacement for every 3 days and measured at day 9 in presence of insulin by Oil Red O staining based analysis. The class given is functional, cell-based. Conditions: dose 1-10 µM, time 9.0 day.
Data set [2] relates to 3T3-L1. As to the kind of experiment: Cytotoxicity against mouse 3T3-L1 cells assessed as reduction in cell viability at 10 uM incubated for 3 days by MTT assay. The class given is toxicity, cell-based. As to conditions: 3t3-l1, 72 h, time 3 day.
Data set [3] has as its system 3T3-L1. As to the kind of experiment: Induction of adipogenesis in mouse 3T3-L1 cells assessed as fold increase in OD value at 10 uM incubated with media replacement for every 3 days and measured for day 9 in presence of insulin by Oil Red O staining based analysis. As to conditions: time 9 day. Format: functional.

In the case of `CCCCCC/C=C/C/C(C)=C/[C@@H](C/C=C/CCC(=O)N(C)[C@@H](COC)C(=O)N1CCC[C@H]1C(=O)CC)OC`, the results for the Activity entry with 3T3-L1 [1] and in the data set on 3T3-L1 [2] were “Dose-Dependent Effect” and “Non-Toxic”, respectively. For the same molecule, the “fold change (FC)” value in the data set on 3T3-L1 [3] is recorded as 2.1.
For `CCCCCCCCC/C(C)=C/[C@@H](C/C=C/CCC(=O)N(C)[C@@H](COC)C(=O)N1CCC[C@H]1C(C)=O)OC` the same measures were “Dose-Dependent Effect”, “Non-Toxic” and 2.3.
